Measurements reported in PubChem BioAssay (NCI).
Several values for one entry are separate records, joined by “and”; a condition that tells them apart may be missing. Equal entries are not always repeated.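 Assay format: 96-well plates, 48-hour exposure. At the GI50, growth is halved. TGI: total growth inhibition.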

Columns and labels:
Experiment in all cases: DTP human tumour cell line panel, 48 h
A549 NSCLC = tested on: A549 NSCLC
HCT-15 colon = tested on: HCT-15 colon
HOP-92 NSCLC = tested on: HOP-92 NSCLC
M14 melanoma = tested on: M14 melanoma
MDA-MB-435 = tested on: MDA-MB-435
OVCAR-5 ovarian = tested on: OVCAR-5 ovarian
RXF 393 renal = tested on: RXF 393 renal
SF-295 CNS = tested on: SF-295 CNS
SNB-75 CNS = tested on: SNB-75 CNS
SW-620 colon = tested on: SW-620 colon

Compound	GI50 (A549 NSCLC)	TGI (A549 NSCLC)	GI50 (HCT-15 colon)	TGI (HCT-15 colon)	GI50 (HOP-92 NSCLC)	TGI (HOP-92 NSCLC)	GI50 (M14 melanoma)	TGI (M14 melanoma)	GI50 (MDA-MB-435)	TGI (MDA-MB-435)	GI50 (OVCAR-5 ovarian)	TGI (OVCAR-5 ovarian)	GI50 (RXF 393 renal)	TGI (RXF 393 renal)	GI50 (SF-295 CNS)	TGI (SF-295 CNS)	GI50 (SNB-75 CNS)	TGI (SNB-75 CNS)	GI50 (SW-620 colon)	TGI (SW-620 colon)
CCN1C(=O)N(CC)C2C1NN=c1s/c(=C\c3ccc(OC)cc3)c(=O)n12 (stereo not drawn)	0.247 µM	> 100 µM	0.104 µM	> 100 µM	3.25 µM	> 100 µM	0.172 µM	> 100 µM	0.031 µM	0.105 µM	0.474 µM	> 100 µM	0.0789 µM	47 µM	0.0684 µM	> 45.9 µM	0.0442 µM	2.84 µM	0.136 µM	> 100 µM
Cc1cc(N)cc(C)c1-c1c(Br)cc(N)cc1Br	4.71 µM	56.5 µM	4.77 µM	> 100 µM	2.01 µM	9.32 µM	2.65 µM	8.76 µM	1.78 µM	11.2 µM	4.84 µM	> 100 µM	2.57 µM	6.91 µM	2.76 µM	12.1 µM	2.29 µM	16.2 µM	3.68 µM	> 100 µM
CCc1ccc([O-])c(C=NCCCN(C)CCCN=Cc2cc(C)ccc2[O-])c1.[Co+3].[N-]=[N+]=[N-]	50 µg/mL and 106 µg/mL	50 µg/mL and > 150 µg/mL	29.5 µg/mL and 35.9 µg/mL	50 µg/mL and > 150 µg/mL	15.9 µg/mL and 22 µg/mL	50 µg/mL and 54.7 µg/mL	50 µg/mL	50 µg/mL	50 µg/mL	50 µg/mL	50 µg/mL and 137 µg/mL	50 µg/mL and > 150 µg/mL	5.76 µg/mL and 20.4 µg/mL	35.5 µg/mL and 46 µg/mL	28.1 µg/mL and 16.9 µg/mL	50 µg/mL and 48.1 µg/mL	1.38 µg/mL and 10 µg/mL	–	50 µg/mL and > 150 µg/mL	50 µg/mL and > 150 µg/mL
COc1ccc(-c2nc3sccn3c2-c2ccnc(NCCCNS(=O)(=O)c3ccc(F)cc3)n2)cc1	2.94 µM	> 100 µM	2.4 µM	10.6 µM	1.75 µM	> 100 µM	2.54 µM	10.2 µM	2 µM	6.51 µM	4.59 µM	> 100 µM	3.13 µM	13.1 µM	2.8 µM	8.55 µM	2.25 µM	6.04 µM	3.87 µM	44.4 µM
CS(=O)(=O)N1CCc2c(-c3cnc(N)nc3)nc(N3CCOCC3)nc21	0.644 µM and 0.413 µM	> 10 µM and 5.45 µM	0.397 µM and 0.419 µM	> 100 µM	0.102 µM and 0.112 µM	0.641 µM and 1.35 µM	1.43 µM and 0.625 µM	> 41 µM	0.94 µM and 0.78 µM	> 10 µM and 12.6 µM	0.685 µM and 0.461 µM	> 62.6 µM	0.605 µM and 0.421 µM	4.04 µM and 3.27 µM	0.556 µM and 0.354 µM	3.91 µM and 3.29 µM	0.146 µM and 0.135 µM	1.3 µM and 0.929 µM	1.54 µM and 1.29 µM	> 100 µM
O=c1c2cc(O)c(O)cc2oc2cc(O)c(C3OC(CO)C(O)C(O)C3O)c(O)c12 (stereo not drawn)	–	> 100 µM	–	> 100 µM	–	> 100 µM	–	> 100 µM	–	> 100 µM	–	> 100 µM	–	> 100 µM	–	> 100 µM	–	> 100 µM	–	> 100 µM
CCCc1n(Cc2ccc3ccccc3n2)cc[n+]1Cc1ccc2ccccc2n1	7.73 µM	> 100 µM	37.9 µM	> 100 µM	0.56 µM	4.18 µM	2.29 µM	13.5 µM	1.13 µM	11.9 µM	3.72 µM	34.2 µM	9.08 µM	35.4 µM	3.57 µM	15.7 µM	1.46 µM	8.7 µM	3.63 µM	25 µM
CC[C@@]1(O)C(=O)NCc2c1cc1n(c2=O)Cc2cc3c(NC(C)=O)cccc3nc2-1	> 100 µM	> 100 µM	> 100 µM	> 100 µM	> 100 µM	> 100 µM	> 100 µM	> 100 µM	> 100 µM	> 100 µM	> 100 µM	> 100 µM	> 100 µM	> 100 µM	> 100 µM	> 100 µM	> 100 µM	> 100 µM	> 86.6 µM	> 100 µM
CNc1ncc2cc(-c3cc(NC(=O)NCCC(C)(C)C)c(F)cc3C)c(C)nc2n1	0.754 µM and 0.598 µM	> 100 µM	0.407 µM and 0.429 µM	> 64.8 µM	0.0571 µM and 0.0903 µM	0.423 µM and 0.511 µM	< 0.01 µM and 0.0105 µM	–	0.0299 µM and 0.0389 µM	> 39.4 µM	0.0761 µM and 0.083 µM	> 100 µM	1.01 µM and 0.504 µM	5.99 µM and > 6.39 µM	1.56 µM and 1.47 µM	> 100 µM	0.949 µM and 1.04 µM	7.36 µM and 7.6 µM	0.27 µM and 0.256 µM	> 100 µM
N#Cc1c(N)c(C#N)c2c(c1-c1ccc(Cl)cc1)COc1ccc(F)cc1-2	42.6 µM	> 50 µM	43.8 µM	> 50 µM	> 50 µM	> 50 µM	16.7 µM	> 50 µM	> 50 µM	> 50 µM	48.6 µM	> 50 µM	> 50 µM	> 50 µM	13.5 µM	> 50 µM	25.6 µM	> 50 µM	22.5 µM	> 50 µM
